pKd: −log10 of the molar value. Read-outs that look alike come from different tables or passages of the source. Peptide text beside a SMILES is read from it. * marks the point of attachment. Biotin = O=C1N[C@H]2[C@H](CS[C@H]2CCCCC(=O)*)N1
How the values were obtained:
[1] = target: T1, PDZ protein (GST-PDZ fusion) (Homo sapiens, UniProt Q92796); assay: G' assay (10 uM PL peptide), results of TABLE 7 and TABLE 12; assay type: binding; details: PDZ NeDLG
T1 construct: made in house; host or cells: E. coli (DH5alpha, BL21 or JM109)
T1 sequence (Q92796 1-817): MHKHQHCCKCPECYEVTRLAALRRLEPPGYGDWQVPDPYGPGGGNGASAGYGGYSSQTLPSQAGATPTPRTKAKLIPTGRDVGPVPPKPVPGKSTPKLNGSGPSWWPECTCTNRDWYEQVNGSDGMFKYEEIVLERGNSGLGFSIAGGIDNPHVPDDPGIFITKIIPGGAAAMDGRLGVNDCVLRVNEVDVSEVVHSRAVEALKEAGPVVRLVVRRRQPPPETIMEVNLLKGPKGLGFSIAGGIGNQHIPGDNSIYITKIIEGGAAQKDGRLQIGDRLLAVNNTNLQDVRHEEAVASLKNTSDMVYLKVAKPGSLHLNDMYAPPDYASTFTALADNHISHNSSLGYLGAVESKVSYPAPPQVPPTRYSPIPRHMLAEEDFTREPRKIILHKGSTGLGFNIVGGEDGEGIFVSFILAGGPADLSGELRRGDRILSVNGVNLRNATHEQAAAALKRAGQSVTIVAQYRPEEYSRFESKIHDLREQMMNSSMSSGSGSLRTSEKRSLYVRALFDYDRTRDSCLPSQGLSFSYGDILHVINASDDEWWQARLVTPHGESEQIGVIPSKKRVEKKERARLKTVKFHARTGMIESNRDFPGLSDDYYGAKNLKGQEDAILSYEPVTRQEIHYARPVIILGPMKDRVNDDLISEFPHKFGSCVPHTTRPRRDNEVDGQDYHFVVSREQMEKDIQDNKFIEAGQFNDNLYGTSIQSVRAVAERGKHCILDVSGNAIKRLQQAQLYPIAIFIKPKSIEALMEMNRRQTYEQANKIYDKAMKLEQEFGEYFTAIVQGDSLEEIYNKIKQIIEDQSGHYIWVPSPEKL
Procedure, shortened: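 Biotinylated PL peptides at 10 uM (vs 20 uM in G^0 assay) bound to GST-PDZ fusions; PDZ protein at 5 ug/ml unless another concentration listed. Bound peptide read as A450 nm, classified 0–5 (0 = A450 0; 5 = A450 >4 repeated).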

[2] = target: PDZ-domain polypeptide (GST/PDZ fusion protein); assay: Apparent affinity (Kd) by titration of PL peptide in the G assay; assay type: binding
Procedure, shortened: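 A fixed concentration of GST/PDZ fusion protein, 5 ug/ml by default, was mixed in solution with increasing labeled PL peptide (e.g. 0.1 uM-1 mM). Reaction times ranged from 10 minutes to 2 days at 4-37° C. Complexes were separated from free peptide and detected via the label as in the G assay, apparent affinity coming from the saturating concentration.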

With `CC[C@H](C)[C@H](NC(=O)[C@H](CCCCN)NC(=O)[C@@H](NC(=O)[C@H](CO)NC(=O)[C@@H]1CCCN1C(=O)[C@H](Cc1ccccc1)NC(=O)[C@@H](NC(=O)[C@@H](NC(=O)[C@H](CCCNC(=N)N)NC(=O)[C@H](CCC(=O)O)NC(=O)[C@H](CC(C)C)NC(=O)[C@H](CC(C)C)NC(=O)[C@H](CC(C)C)NC(=O)[C@@H](NC(=O)CNC(=O)[C@@H](NC(=O)CCCC[C@@H]1SC[C@@H]2NC(=O)N[C@@H]21)C(C)C)[C@@H](C)O)C(C)C)[C@@H](C)CC)C(C)C)C(=O)N[C@@H](C)C(=O)N[C@H](C(=O)N[C@@H](CC(C)C)C(=O)N[C@H](C(=O)O)C(C)C)[C@@H](C)O` [Adenovirus E4 Type9] the Classification ([1]; PDZ Domain 1, 2, PL peptide 10 uM) was 5 (A450 nm of 4 more than 2× repeated), the Classification ([1]; PDZ Domain 1, PL peptide 10 uM) was 1 (A450 nm 0-1) and the Classification ([1]; PDZ Domain 2, Protein Optimal Conc 5) was 5 (A450 nm of 4 more than 2× repeated). For the same compound, the pKd ([2]; PDZ BAI-1, PDZ Domain 2, Protein Optimal Conc 0.3, read-out: Peptide Optimal Conc (Kd by titration of the PL peptide)) was 7.70, the pKd ([2]; PDZ BAI-1, PDZ Domain 3, Protein Optimal Conc 0.5, read-out: Peptide Optimal Conc (Kd by titration of the PL peptide)) was 7.12 and the pKd ([2]; PDZ BAI-1, PDZ Domain 4, Protein Optimal Conc 0.3, read-out: Peptide Optimal Conc (Kd by titration of the PL peptide)) was 7.00. It also gave a pKd ([2]; PDZ HEMBA 1003117, PDZ Domain 1, Protein Optimal Conc 5, read-out: Peptide Optimal Conc (Kd by titration of the PL peptide)) of 6.52.

`CC(C)C[C@H](NC(=O)CNC(=O)[C@@H](NC(=O)[C@H](CO)NC(=O)[C@H](CC(N)=O)NC(=O)[C@H](Cc1ccccc1)NC(=O)CNC(=O)[C@H](C)NC(=O)[C@H](C)NC(=O)[C@H](Cc1ccccc1)NC(=O)[C@@H](NC(=O)CCCC[C@@H]1SC[C@@H]2NC(=O)N[C@@H]21)[C@@H](C)O)[C@@H](C)O)C(=O)N1CCC[C@H]1C(=O)N[C@@H](Cc1c[nH]cn1)C(=O)N[C@@H](CO)C(=O)N[C@H](C(=O)N[C@H](C(=O)N[C@@H](CCCNC(=N)N)C(=O)N[C@H](C(=O)O)C(C)C)[C@@H](C)O)[C@@H](C)O` [Neuroligin] (Biotin-TFAAGFNSTGLPHSTTRV-OH; C-terminus assumed) was tested, and the Classification ([1]; PDZ Domain 1, 2) was 1 (A450 nm 0-1), the Classification ([1]; PDZ Domain 3) was 1 (A450 nm 0-1) and the pKd ([2]; PDZ SHANK, PDZ Domain 1, read-out: Peptide Optimal Conc (Kd by titration of the PL peptide)) was 6.52.

Work on `CC(C)C[C@H](NC(=O)[C@H](Cc1c[nH]c2ccccc12)NC(=O)[C@H](Cc1c[nH]cn1)NC(=O)[C@H](CCCNC(=N)N)NC(=O)[C@H](CC(C)C)NC(=O)[C@@H](NC(=O)[C@H](Cc1ccccc1)NC(=O)[C@H](CCC(N)=O)NC(=O)[C@H](CCCNC(=N)N)NC(=O)[C@@H](NC(=O)[C@H](CCC(=O)O)NC(=O)CNC(=O)[C@H](CCCNC(=N)N)NC(=O)[C@H](CC(=O)O)NC(=O)[C@@H](NC(=O)[C@H](CC(C)C)NC(=O)[C@H](CCC(=O)O)NC(=O)[C@H](CCCNC(=N)N)NC(=O)CCCC[C@@H]1SC[C@@H]2NC(=O)N[C@@H]21)C(C)C)C(C)C)[C@@H](C)O)C(=O)N[C@@H](CCCCN)C(=O)N[C@H](C(=O)O)C(C)C` [Dopamine transporter (Na+-dependent)] (Biotin-RELVDRGEVRQFTLRHWLKV-OH; C-terminus assumed) yielded a pKd ([2]; PDZ HEMBA 1003117, PDZ Domain 1, read-out: Peptide Optimal Conc (Kd by titration of the PL peptide)) of 6.52.

For `CC(C)C[C@H](NC(=O)[C@H](C)NC(=O)[C@H](CO)NC(=O)CNC(=O)[C@@H](NC(=O)CCCC[C@@H]1SC[C@@H]2NC(=O)N[C@@H]21)[C@@H](C)O)C(=O)N[C@@H](CCC(N)=O)C(=O)N[C@@H](C)C(=O)N[C@@H](Cc1c[nH]c2ccccc12)C(=O)N[C@@H](CCCNC(=N)N)C(=O)N[C@@H](Cc1c[nH]cn1)C(=O)N[C@H](C(=O)N[C@@H](CO)C(=O)N[C@@H](CCCNC(=N)N)C(=O)N[C@@H](CCC(N)=O)C(=O)N[C@@H](C)C(=O)N[C@H](C(=O)N[C@@H](CCC(=O)O)C(=O)N[C@@H](CO)C(=O)N[C@H](C(=O)N[C@H](C(=O)O)C(C)C)[C@@H](C)O)[C@@H](C)O)[C@@H](C)O` [HPV E6 #66 (modified)] (Biotin-TGSALQAWRHTSRQATESTV-OH; C-terminus assumed), the Classification ([1]; PDZ Domain 1) was 1 (A450 nm 0-1), the Classification ([1]; PDZ Domain 1, 2) was 5 (A450 nm of 4 more than 2× repeated) and the Classification ([1]; PDZ Domain 2) was 4 (A450 nm 3-4). The pKd ([2]; PDZ BAI-1, PDZ Domain 2, read-out: Peptide Optimal Conc (Kd by titration of the PL peptide)) was 5.52.

Work on `CC(C)C[C@H](NC(=O)[C@H](CC(C)C)NC(=O)[C@@H](NC(=O)[C@H](CC(=O)O)NC(=O)CCCC[C@@H]1SC[C@@H]2NC(=O)N[C@@H]21)[C@@H](C)O)C(=O)N[C@@H](CC(C)C)C(=O)N[C@H](C(=O)N[C@@H](CCC(=O)O)C(=O)N[C@@H](CC(N)=O)C(=O)N[C@@H](CCC(=O)O)C(=O)NCC(=O)N[C@@H](CC(=O)O)C(=O)N[C@@H](CCCCN)C(=O)N[C@H](C(=O)N[C@@H](CCC(=O)O)C(=O)N[C@@H](CCC(=O)O)C(=O)N[C@@H](CCC(N)=O)C(=O)N[C@H](C(=O)N[C@@H](CO)C(=O)N[C@@H](Cc1ccc(O)cc1)C(=O)N[C@H](C(=O)O)C(C)C)C(C)C)[C@@H](C)O)[C@@H](C)O` [5H2B_HUMAN] (Biotin-DTLLLTENEGDKTEEQVSYV-OH; C-terminus assumed) yielded a pKd ([2]; PDZ BAI-1, PDZ Domain 3, read-out: Peptide Optimal Conc (Kd by titration of the PL peptide)) of 5.70.

For `CC[C@H](C)[C@H](NC(=O)[C@H](CO)NC(=O)[C@@H](NC(=O)[C@H](Cc1ccccc1)NC(=O)[C@H](CO)NC(=O)CCCC[C@@H]1SC[C@@H]2NC(=O)N[C@@H]21)[C@@H](C)O)C(=O)N[C@@H](CC(C)C)C(=O)N[C@H](C(=O)N[C@@H](CS)C(=O)N[C@@H](Cc1c[nH]cn1)C(=O)N[C@@H](CCC(N)=O)C(=O)N[C@@H](CCCNC(=N)N)C(=O)N[C@@H](CCCNC(=N)N)C(=O)N[C@H](C(=O)N[C@@H](CCC(N)=O)C(=O)N[C@@H](CCCNC(=N)N)C(=O)N[C@@H](CCCCN)C(=O)N[C@@H](CCC(=O)O)C(=O)N[C@H](C(=O)N[C@H](C(=O)N[C@@H](C)C(=O)O)C(C)C)[C@@H](C)O)[C@@H](C)O)[C@@H](C)O` [GluR5-2 (rat)], the Classification ([1]; PDZ Domain 1, 2) was 5 (A450 nm of 4 more than 2× repeated), the Classification ([1]; PDZ Domain 2) was 1 (A450 nm 0-1) and the Classification ([1]; PDZ Domain 3) was 2 (A450 nm 1-2). The pKd ([2]; PDZ BAI-1, PDZ Domain 2, titration of the PL peptide, read-out: Peptide Optimal Conc (Kd, dissociation constant)) was 6.52.

Work on `CC(C)C[C@H](NC(=O)[C@H](CC(=O)O)NC(=O)[C@H](CO)NC(=O)[C@H](CCC(=O)O)NC(=O)CNC(=O)[C@H](Cc1ccc(O)cc1)NC(=O)[C@H](CC(C)C)NC(=O)[C@H](C)NC(=O)[C@H](CO)NC(=O)[C@H](CO)NC(=O)[C@H](Cc1ccccc1)NC(=O)[C@H](C)NC(=O)[C@H](C)NC(=O)[C@H](Cc1ccc(O)cc1)NC(=O)[C@H](CC(=O)O)NC(=O)[C@H](CC(C)C)NC(=O)[C@H](C)NC(=O)CNC(=O)[C@@H]1CCCN1C(=O)[C@@H](NC(=O)CCCC[C@@H]1SC[C@@H]2NC(=O)N[C@@H]21)C(C)C)C(=O)O` [a-actinin 2] (Biotin-VPGALDYAAFSSALYGESDL-OH; C-terminus assumed) yielded a pKd ([2]; PDZ TAX IP2, PDZ Domain 1, titration of the PL peptide, read-out: Peptide Optimal Conc (Kd, dissociation constant)) of 5.60.

In the case of `CC(C)C[C@H](NC(=O)[C@H](C)NC(=O)[C@@H](NC(=O)[C@@H](NC(=O)[C@H](Cc1c[nH]cn1)NC(=O)[C@H](CC(C)C)NC(=O)CNC(=O)[C@H](CCC(N)=O)NC(=O)CNC(=O)CNC(=O)[C@H](C)NC(=O)[C@H](C)NC(=O)[C@H](CCCNC(=N)N)NC(=O)[C@H](C)NC(=O)[C@H](CO)NC(=O)[C@H](CC(=O)O)NC(=O)[C@H](CC(=O)O)NC(=O)[C@H](Cc1c[nH]c2ccccc12)NC(=O)[C@H](C)NC(=O)CCCC[C@@H]1SC[C@@H]2NC(=O)N[C@@H]21)C(C)C)[C@@H](C)O)C(=O)O` [LPAP] (Biotin-AWDDSARAAGGQGLHVTAL-OH; C-terminus assumed), the pKd ([2]; PDZ FLJ 00011, PDZ Domain 1, read-out: Peptide Optimal Conc (Kd by titration of the PL peptide)) was 5.82.

— patent publication US20050282743A1, “Molecular interactions in cells” (Arbor Vita Corporation, priority 2001, published 2005)
